Positions of bridges follow the written chain, without caps; N, C: chain ends. Non-standard residues stand in square brackets, D forms with d. Residues, ends and D or L forms follow the SMILES beside them. hArg = N=C(N)NCCCC[C@H](N)C(=O)O; Mpa = O=C(O)CCS
Key:
NOD/SCID mice = experiment: Tail-snip bleed model in clopidogrel-treated mice; format: in vivo, mouse; details: ~3 times the clinical dose of clopidogrel for 5 days; untreated 9 minutes
Protocol: The mouse was treated with clopidogrel for 5 days. The mouse was anesthetized, the tail end was snipped off followed by thrombosomes being immediately administered. The time from tail snip to tail stop bleeding was recorded by visual inspection.
NOD/SCID mice were treated with ~ 3 times the clinical dose of clopidogrel for 5 days then assessed in the tail-snip bleed model. The bleed time (min) was extended to 17.8 minutes with clopidogrel treatment verses untreated at 9 minutes (data not shown).

platelets = experiment: Transmission light aggregometry, collagen-induced platelet aggregation in PRP; format: cell-based; details: collagen 10 µg/mL, all concentrations tested, FIG. 1
Description: Plasma samples with platelet or thrombosomes or combination of both are loaded into cuvettes and placed into the aggregometry chambers. The chambers warm the sample and provide constant stirring. The initiation of aggregation can be done by multiple types of […] agents not limited to thrombin, ADP, collagen and any agent known to stimulate platelet aggregation. The samples can also have been taken as ex-vivo, or in-vitro supplemented with inhibitors. The instrument begins the assay by first recording the light transmission previous to stimulation for 2 minutes. The stimulant of interest is then introduced by the technician and the change in light transmission is recorded over time. The increase in light transmission corresponds to increase in platelet aggregation.
The aggregation of platelets (in platelet rich plasma) was evaluated using transmission light aggregometry. […] (FIG. 1).

whole blood = experiment: T-TAS AR chip occlusion of whole blood under shear; format: cell-based
Description: (§1) Evaluation by T-TAS® using an AR chip. AR chips are characterized by a single channel containing collagen and tissue factor; they can be used to analyze clotting and platelet function.

platelet rich plasma = experiment: T-TAS flow system occlusion of platelet rich plasma (collagen and tissue factor coated channel); format: cell-based; details: untreated 18.43
Description: as §1

[1] = cited from earlier work
thrombin = experiment: Thrombin generation in plasma; format: biochemical, human; details: PPP from patients taking baby aspirin daily; normal range about 66-166 nM; FIG. 18
Protocol: Reagent Preparation. For thrombin generation, the following materials were used from manufacturers, as follows: FluCa Kit (Diagnostica Stago, Cat. No. 86197), Thrombin calibrator (Diagnostica Stago, Cat. No. 86197), PRP Reagent (Diagnostica Stago, Cat. No. 86196), OCTOPLAS®, a solvent detergent treated human pooled plasma (Octapharma, Cat. No. 8-68209-952-04). All frozen reagents were thawed in a 37° C. water bath before use. All reagents were rehydrated with sterile water using the volume printed on the reagent labels. Approximately 2 min after rehydration, the reagents were mixed by inverting vials 5 times, so no chunks or powder left; vortexing was not used. […]
Sample Analysis - Plate preparation and testing. For experiments containing thrombosomes, a thrombosomes dilution series was generated (dilutions of 194.4 K, 64.8 K, 21.6 K, and 7.2 K per µL were typically used; cell counts are determined by flow cytometry) for each the experimental thrombosomes and the reference thrombosomes. […] The plate was then incubated in the Fluoroskan Ascent 96 well fluorescent plate reader (Thrombinoscope) (ThermoFisher Scientific) for 10 minutes. […] The plate fluorescence was monitored for 75 minutes at an interval of 20 seconds and a temperature of 40-41° C.
The effect of aspirin treatment (concentration) on thrombin generation was measured. […]

`COC(=O)[C@H](c1ccccc1Cl)N1CCc2sccc2C1` [clopidogrel] showed a bleed time (NOD/SCID mice) of 17.8 min.
For `N=C(N)NCCCC[C@@H]1NC(=O)CCSSC[C@@H](C(N)=O)NC(=O)[C@@H]2CCCN2C(=O)[C@H](Cc2c[nH]c3ccccc23)NC(=O)[C@H](CC(=O)O)NC(=O)CNC1=O` [eptifibatide] ([Mpa][hArg]GDWPC-NH2; disulfide 1-7), the collagen-induced platelet aggregation (platelets) was “completely inhibited”, the “occlusion time of whole blood on T-TAS AR Chip” value (whole blood; 6 µM eptifibatide, untreated whole blood occluded at 8 minutes, FIG. 2) was 16 min and the “effect on occlusion time of whole blood on T-TAS AR Chip” value (whole blood; eptifibatide at various concentrations) was “dose-dependent manner”. The “occlusion time of platelet rich plasma” value (platelet rich plasma; 9 µM eptifibatide, FIGS. 10A, 10B) was “over 30 minutes”, the blood concentration ([1]; IV 180 µg/kg bolus followed by 2 µg/kg/min continuous infusion, typical) was 1000 to 2000 nM and the “time for bleeding time to return to normal after drug stoppage” value ([1]; generally) was ≤ 1 h.
In the case of `CCCCS(=O)(=O)N[C@@H](Cc1ccc(OCCCCC2CCNCC2)cc1)C(=O)O` [tirofiban], the “occlusion time of platelet rich plasma” value (platelet rich plasma; 100 ng/mL tirofiban, FIGS. 9A, 9B) was “no occlusion”.
With `CC(=O)Oc1ccccc1C(=O)O` [aspirin] the “peak thrombin of aspirin plasma in absence of thrombosomes” value (thrombin) was “about 45 nM”.
